In patent US8143393B2, “Substituted 4-amino-pyrrolotriazine derivatives useful for treating hyper-proliferative disorders and diseases associated with angiogenesis” (Bayer HealthCare LLC, priority 2005, dated 2012):

target: T1, FGFR-1 (Homo sapiens, UniProt P11362); assay: FGFR-1 TR-FRET biochemical assay; conditions: 0.6 uM ATP, 5 nM FGFR1-GST; bounds given in nM
T1 construct: GST; made in house
Procedure, shortened: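 FGFR1-GST (5 nM) was incubated with poly GT-biotin (25 nM) and 0.6 uM ATP in HEPES pH 7.5/MgCl2 with 1% DMSO for 1 h at room temperature. Phosphorylation was read by LANCE TR-FRET (Eu-anti-pTyr/SA-APC, 665/615 ratio). Percent inhibition was background-corrected against no-ATP wells, with final compound concentrations of 10 μM–0.128 nM.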

T1 sequence (P11362 22-822): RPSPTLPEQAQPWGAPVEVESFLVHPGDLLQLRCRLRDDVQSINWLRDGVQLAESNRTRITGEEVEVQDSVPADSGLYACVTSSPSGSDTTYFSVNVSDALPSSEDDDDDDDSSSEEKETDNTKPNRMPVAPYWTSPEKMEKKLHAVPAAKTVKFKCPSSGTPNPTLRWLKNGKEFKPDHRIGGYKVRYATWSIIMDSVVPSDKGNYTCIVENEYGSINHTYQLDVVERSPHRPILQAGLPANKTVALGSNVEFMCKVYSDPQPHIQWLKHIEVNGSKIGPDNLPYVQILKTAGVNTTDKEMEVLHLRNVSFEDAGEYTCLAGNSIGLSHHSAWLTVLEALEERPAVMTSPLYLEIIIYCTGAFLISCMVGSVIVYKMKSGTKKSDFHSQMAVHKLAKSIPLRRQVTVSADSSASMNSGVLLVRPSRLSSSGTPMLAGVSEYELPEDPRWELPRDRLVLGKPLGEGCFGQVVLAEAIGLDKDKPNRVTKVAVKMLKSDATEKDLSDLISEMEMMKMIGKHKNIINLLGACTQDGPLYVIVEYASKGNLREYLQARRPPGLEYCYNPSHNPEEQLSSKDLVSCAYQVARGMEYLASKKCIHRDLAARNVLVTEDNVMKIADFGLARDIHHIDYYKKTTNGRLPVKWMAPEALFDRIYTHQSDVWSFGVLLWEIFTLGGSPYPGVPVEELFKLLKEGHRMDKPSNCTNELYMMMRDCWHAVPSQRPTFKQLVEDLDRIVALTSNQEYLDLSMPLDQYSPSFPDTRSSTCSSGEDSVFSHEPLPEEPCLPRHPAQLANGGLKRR

SMILES | IC50 [nM]
CN1CCN(C(=O)c2cc(-c3ccc(NC(=O)Nc4cc(C(F)(F)F)ccc4F)c(F)c3)c3c(N)ncnn23)CC1 [Example 161, N-(4-{4-amino-7-[(4-methylpiperazin-1-yl)carbonyl]pyrrolo[2,1-f][1,2,4]triazin-5-yl}-2-fluorophenyl)-N′-[2-fluoro-5-(trifluoromethyl)phenyl]urea] | < 10
Nc1ncnn2c(CN3CCOCC3)cc(-c3ccc(NC(=O)Nc4cc(C(F)(F)F)ccc4Cl)cc3)c12 [Example 52, N-{4-[4-amino-7-(morpholin-4-ylmethyl)pyrrolo[2,1-f][1,2,4]triazin-5-yl]phenyl}-N′-[2-chloro-5-(trifluoromethyl)phenyl]urea] | < 10
Nc1ncnn2c(C3CCNC3)cc(-c3ccc(NC(=O)Nc4cc(C(F)(F)F)ccc4F)c(F)c3)c12 (stereo not shown) [Example 200, N-[4-(4-amino-7-pyrrolidin-3-ylpyrrolo[2,1-f][1,2,4]triazin-5-yl)-2-fluorophenyl]-N′-[2-fluoro-5-(trifluoromethyl)phenyl]urea] | 10 to 100
Cc1ccc(F)c(NC(=O)Nc2ccc(-c3cc(CN4CCOCC4)n4ncnc(N)c34)cc2F)c1 [Example 149, N-{4-[4-amino-7-(morpholin-4-ylmethyl)pyrrolo[2,1-f][1,2,4]triazin-5-yl]-2-fluorophenyl}-N′-(2-fluoro-5-methylphenyl)urea] | < 10
Nc1ncnn2c(C3CCN(C(=O)CO)CC3)cc(-c3ccc(NC(=O)Nc4cc(C(F)(F)F)ccn4)c(F)c3)c12 [Example 236, N-{4-[4-amino-7-(1-glycoloylpiperidin-4-yl)pyrrolo[2,1-f][1,2,4]triazin-5-yl]-2-fluorophenyl}-N′-[4-(trifluoromethyl)pyridin-2-yl]urea] | < 10
Nc1ncnn2c(C3CCN(C4CC4)CC3)cc(-c3ccc(NC(=O)Nc4cc(C(F)(F)F)ccn4)c(F)c3)c12 [Example 235, N-{4-[4-amino-7-(1-cyclopropylpiperidin-4-yl)pyrrolo[2,1-f][1,2,4]triazin-5-yl]-2-fluorophenyl}-N′-[4-(trifluoromethyl)pyridin-2-yl]urea] | 10 to 100
Nc1ncnn2c(CN3CCNC(=O)C3)cc(-c3ccc(NC(=O)Nc4cc(C(F)(F)F)ccn4)c(F)c3)c12 [Example 163, N-(4-{4-amino-7-[(3-oxopiperazin-1-yl)methyl]-pyrrolo [2,1-f][1,2,4]triazin-5-yl}-2-fluorophenyl)-N′-[4-(trifluoromethyl)-pyridin-2-yl]urea] | < 10
CCc1cccc(NC(=O)Nc2ccc(-c3cc(CN4CCOCC4)n4ncnc(N)c34)cc2)c1 [Example 50, N-{4-[4-amino-7-(morpholin-4-ylmethyl)pyrrolo[2,1-f][1,2,4]triazin-5-yl]phenyl}-N′-(3-ethylphenyl)urea] | < 10
Nc1ncnn2c(C3CCN(C(=O)CN4CCOCC4)CC3)cc(-c3ccc(NC(=O)Nc4cc(C(F)(F)F)ccc4F)c(F)c3)c12 [Example 115, N-(4-4-amino-7-[1-(morpholin-4-ylacetyl)piperidin-4-yl]pyrrolo[2,1-f][1,2,4]triazin-5-yl-2-fluorophenyl)-N′-[2-fluoro-5-(trifluoromethyl)-phenyl]urea] | 10 to 100
Nc1ncnn2c(C3CCN(C(=O)CO)CC3)cc(-c3ccc(NC(=O)Nc4cc(C(F)(F)F)ccc4F)c(F)c3)c12 [Example 114, N-4-[4-amino-7-(1-glycoloylpiperidin-4-yl)pyrrolo[2,1-f][1,2,4]triazin-5-yl]-2-fluorophenyl-N′-[2-fluoro-5-(trifluoromethyl)phenyl]urea] | < 10
CC(C)(C)c1ccnc(NC(=O)Nc2ccc(-c3cc(CN4CCOCC4)n4ncnc(N)c34)cc2)c1 [Example 53, N-{4-[4-amino-7-(morpholin-4-ylmethyl)pyrrolo[2,1-f][1,2,4]triazin-5-yl]phenyl}-N′-(4-tert-butylpyridin-2-yl)urea] | < 10
Nc1ncnn2c(CCCN3CCOCC3)cc(-c3ccc(NC(=O)Nc4cc(C(F)(F)F)ccn4)c(F)c3)c12 [Example 191, N-{4-[4-amino-7-(3-morpholin-4-ylpropyl)pyrrolo[2,1-f][1,2,4]triazin-5-yl]-2-fluorophenyl}-N′-[4-(trifluoromethyl)pyridin-2-yl]urea] | < 10
Nc1ncnn2c(CCCN3CCOCC3)cc(-c3ccc(NC(=O)Nc4cc(C(F)(F)F)ccc4F)cc3)c12 [Example 108, N-{4-[4-amino-7-(3-morpholin-4-ylpropyl)pyrrolo[2,1-f][1,2,4]triazin-5-yl]phenyl}-N′-[2-fluoro-5-(trifluoromethyl)phenyl]urea] | < 10
Nc1ncnn2c(C(O)CO)cc(-c3ccc(NC(=O)Nc4cc(C(F)(F)F)ccc4F)c(F)c3)c12 (stereo not shown) [Example 254, N-{4-[4-amino-7-(1,2-dihydroxyethyl)pyrrolo[2,1-f][1,2,4]triazin-5-yl]-2-fluorophenyl}-N′-[2-fluoro-5-(trifluoromethyl)phenyl]urea] | > 100
CC(C)(C)OC(=O)N1CCN(Cc2cc(-c3ccc(NC(=O)Nc4cc(C(F)(F)F)ccc4F)cc3)c3c(N)ncnn23)CC1 [Example 80, tert-butyl 4-[(4-amino-5-{4-[({[2-fluoro-5-(trifluoromethyl)phenyl]amino}carbonyl)amino]phenyl}pyrrolo[2,1-f][1,2,4]triazin-7-yl)methyl]piperazine-1-carboxylate] | > 100
Nc1ncnn2c(C3CCN(CCO)CC3)cc(-c3ccc(NC(=O)Nc4cc(C(F)(F)F)ccc4F)c(F)c3)c12 [Example 116, N-(4-4-amino-7-[1-(2-hydroxyethyl)piperidin-4-yl]pyrrolo[2,1-f][1,2,4]triazin-5-yl-2-fluorophenyl)-N′-[2-fluoro-5-(trifluoromethyl)phenyl]urea] | < 10
Cc1ccnc(NC(=O)Nc2ccc(-c3cc(CN4CCOCC4)n4ncnc(N)c34)cc2Cl)c1 [Example 133, N-4-[4-amino-7-(morpholin-4-ylmethyl)pyrrolo[2,1-f][1,2,4]triazin-5-yl]-2-chlorophenyl-N′-(4-methylpyridin-2-yl)urea] | 10 to 100
Nc1ncnn2c(C(=O)NCC3CNCCO3)cc(-c3ccc(NC(=O)Nc4cc(C(F)(F)F)ccc4F)c(F)c3)c12 (stereo not shown) [Example 283, 4-amino-5-{3-fluoro-4-[({[2-fluoro-5-(trifluoromethyl)-phenyl]amino}carbonyl)amino]phenyl}-N-(morpholin-2-ylmethyl)pyrrolo[2,1-f][1,2,4]triazine-7-carboxamide] | 10 to 100
Nc1ncnn2c(CN3CCCOCC3)cc(-c3ccc(NC(=O)Nc4cc(C(F)(F)F)ccn4)c(F)c3)c12 [Example 179, N-{4-[4-amino-7-(1,4-oxazepan-4-ylmethyl)pyrrolo[2,1-f][1,2,4]triazin-5-yl]-2-fluorophenyl}-N′-[4-(trifluoromethyl)pyridin-2-yl]urea] | < 10
CC(=O)N1CCC(c2cc(-c3ccc(NC(=O)Nc4cc(C(F)(F)F)ccc4F)c(F)c3)c3c(N)ncnn23)C1 (stereo not shown) [Example 202, N-{4-[7-(1-acetylpyrrolidin-3-yl)-4-aminopyrrolo[2,1-f][1,2,4]triazin-5-yl]-2-fluorophenyl}-N′-[2-fluoro-5-(trifluoromethyl)phenyl]urea] | < 10
Nc1ncnn2c(C(O)C(O)CO)cc(-c3ccc(NC(=O)Nc4cc(C(F)(F)F)ccc4F)c(F)c3)c12 (stereo not shown) [Example 255, N-{4-[4-amino-7-(1,2,3-trihydroxypropyl)pyrrolo[2,1-f][1,2,4]triazin-5-yl]-2-flourophenyl}-N′-[2-fluoro-5-(trifluoromethyl)phenyl]urea] | 10 to 100
COC[C@@H]1CCCN1CCc1cc(-c2ccc(NC(=O)Nc3cc(C(F)(F)F)ccc3F)c(F)c2)c2c(N)ncnn12 [Example 215, N-[4-(4-amino-7-{2-[2-(methoxymethyl)pyrrolidin-1-yl]ethyl}pyrrolo-[2,1-f][1,2,4]triazin-5-yl)-2-fluorophenyl]-N′-[2-fluoro-5-(trifluoromethyl)phenyl]urea] | 10 to 100
Cc1cccc(NC(=O)Nc2ccc(-c3cc(CN4CCOCC4)n4ncnc(N)c34)cc2)n1 [Example 57, N-{4-[4-amino-7-(morpholin-4-ylmethyl)pyrrolo[2,1-f][1,2,4]-triazin-5-yl]phenyl}-N′-(6-methylpyridin-2-yl)urea] | > 100
Nc1ncnn2c(CN3CCOCC3)cc(-c3ccc(NC(=O)Nc4cccc(C(F)(F)F)c4F)nc3)c12 [Example 21, N-{5-[4-amino-7-(morpholin-4-ylmethyl)pyrrolo[2,1-f][1,2,4]triazin-5-yl]pyridin-2-yl}-N′-[2-fluoro-3-(trifluoromethyl)phenyl]urea] | 10 to 100
Nc1ncnn2c(CN3CCOCC3)cc(-c3ccc(NC(=O)Nc4cc(C(F)(F)F)ccc4F)c(Cl)c3)c12 [Example 128, N-4-[4-amino-7-(morpholin-4-ylmethyl)pyrrolo[2,1-f][1,2,4]triazin-5-yl]-2-chlorophenyl-N′-[2-fluoro-5-(trifluoromethyl)phenyl]urea] | < 10
CC(=O)N1CCN(Cc2cc(-c3ccc(NC(=O)Nc4cc(C(F)(F)F)ccc4F)c(F)c3)c3c(N)ncnn23)CC1 [Example 89, N-(4-{7-[(4-acetylpiperazin-1-yl)methyl]-4-aminopyrrolo[2,1-f][1,2,4]triazin-5-yl}-2-fluorophenyl)-N′-[2-fluoro-5-(trifluoromethyl)phenyl]urea] | < 10
Nc1ncnn2c(CN3CCOCC3)cc(-c3ccc(NC(=O)Nc4cc(C(F)(F)F)ccn4)nc3)c12 [Example 12, N-{5-[4-amino-7-(morpholin-4-ylmethyl)pyrrolo[2,1-f][1,2,4]triazin-5-yl]pyridin-2-yl}-N′-[4-(trifluoromethyl)pyridin-2-yl]urea] | < 10
CCOCCN1CCC(c2cc(-c3ccc(NC(=O)Nc4cc(C(F)(F)F)ccc4F)c(Cl)c3)c3c(N)ncnn23)CC1 [Example 243, N-(4-{4-amino-7-[1-(2-ethoxyethyl)piperidin-4-yl]pyrrolo[2,1-f][1,2,4]triazin-5-yl}-2-chlorophenyl)-N′-[2-fluoro-5-(trifluoromethyl)phenyl]urea] | 10 to 100

same assay, conditions: upper bound of the bin 'greater than 100 nM but less than 1 μM' (lower bound in E1)

SMILES | IC50 [nM]
Nc1ncnn2c(C(O)CO)cc(-c3ccc(NC(=O)Nc4cc(C(F)(F)F)ccc4F)c(F)c3)c12 (stereo not shown) [Example 254, N-{4-[4-amino-7-(1,2-dihydroxyethyl)pyrrolo[2,1-f][1,2,4]triazin-5-yl]-2-fluorophenyl}-N′-[2-fluoro-5-(trifluoromethyl)phenyl]urea] | < 1000
CC(C)(C)OC(=O)N1CCN(Cc2cc(-c3ccc(NC(=O)Nc4cc(C(F)(F)F)ccc4F)cc3)c3c(N)ncnn23)CC1 [Example 80, tert-butyl 4-[(4-amino-5-{4-[({[2-fluoro-5-(trifluoromethyl)phenyl]amino}carbonyl)amino]phenyl}pyrrolo[2,1-f][1,2,4]triazin-7-yl)methyl]piperazine-1-carboxylate] | < 1000
Cc1cccc(NC(=O)Nc2ccc(-c3cc(CN4CCOCC4)n4ncnc(N)c34)cc2)n1 [Example 57, N-{4-[4-amino-7-(morpholin-4-ylmethyl)pyrrolo[2,1-f][1,2,4]-triazin-5-yl]phenyl}-N′-(6-methylpyridin-2-yl)urea] | < 1000
